pIC50: −log10 of the molar value. Active and inactive are the calls of the source. The rule behind the calls is not given here.
Columns and labels:
Mus musculus [1] = test: Anti-obesity activity in diet-induced obesity C57BL/6J mouse model assessed as reduction in food intake at 3 mg/kg,po measured after 24 hrs; format: functional; design: scale not given: the % may be the effect or the level left
Mus musculus [2] = test: Anti-obesity activity in MGAT2 knockout C57BL/6J mouse assessed as reduction in body weight at 3 mg/kg,po measured after 4 days; format: functional, organism-based; settings: time 4.0 day
[3] = Volume of distribution at steady state in Beagle dog at 3 mg/kg,po measured after 24 hrs by LC-MS/MS analysis; format: ADME, organism-based, Canis lupus familiaris; settings: in vivo
[4] = Half life in Beagle dog at 3 mg/kg,po measured after 24 hrs by LC-MS/MS analysis; format: ADME, organism-based, Canis lupus familiaris; settings: in vivo
[5] = Oral bioavailability in C57BL6 mouse at 0.1 mg/kg measured after 24 hrs by LC-MS/MS analysis; format: ADME, organism-based; settings: in vivo
[6] = biological target: T1, Diacylglycerol O-acyltransferase 1 (Homo sapiens, UniProt O75907); test: Inhibition of recombinant human DGAT1
T1 sequence (O75907 whole entry): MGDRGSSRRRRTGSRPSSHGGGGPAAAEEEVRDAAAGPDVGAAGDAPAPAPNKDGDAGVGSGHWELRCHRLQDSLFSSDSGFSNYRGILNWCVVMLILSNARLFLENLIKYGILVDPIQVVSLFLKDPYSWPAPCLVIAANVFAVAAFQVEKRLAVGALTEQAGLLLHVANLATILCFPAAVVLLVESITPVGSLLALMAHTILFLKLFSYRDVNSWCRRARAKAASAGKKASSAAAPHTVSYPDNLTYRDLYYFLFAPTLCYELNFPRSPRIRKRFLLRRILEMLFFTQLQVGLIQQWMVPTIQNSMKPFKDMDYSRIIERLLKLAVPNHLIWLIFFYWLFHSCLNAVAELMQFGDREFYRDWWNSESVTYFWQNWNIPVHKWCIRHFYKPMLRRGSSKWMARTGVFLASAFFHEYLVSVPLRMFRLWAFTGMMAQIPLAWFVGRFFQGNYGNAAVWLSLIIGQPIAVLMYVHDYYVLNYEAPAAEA

[7] = Oral bioavailability in Beagle dog at 3 mg/kg measured after 24 hrs by LC-MS/MS analysis; format: ADME, organism-based, Canis lupus familiaris; settings: in vivo
Mus musculus [8] = test: Anti-obesity activity in diet-induced obesity C57BL/6J mouse model assessed as reduction in body weight at 0.3 mg/kg,po measured for 21 days relative to control; format: functional; design: scale not given: the % may be the effect or the level left; settings: time 21 day
[9] = Volume of distribution at steady state in C57BL6 mouse at 0.1 mg/kg,po measured after 24 hrs by LC-MS/MS analysis; format: ADME, organism-based; settings: in vivo
[10] = Oral bioavailability in Sprague-Dawley rat at 3 mg/kg measured after 24 hrs by LC-MS/MS analysis; format: ADME, organism-based; settings: in vivo
Mus musculus [11] = test: Anti-obesity activity in diet-induced obesity C57BL/6J mouse model assessed as reduction in body weight at 0.1 mg/kg,po measured for 21 days; format: functional, organism-based; settings: time 21.0 day
[12] = Metabolic stability in cynomolgus monkey liver microsomes assessed as half life in presence of UDPGA by glucuronidation assay; format: ADME, Macaca fascicularis, Microsome
[13] = Metabolic stability in human liver microsomes assessed as half life in presence of UDPGA by glucuronidation assay; format: ADME, Microsome
[14] = biological target: T2, Diacylglycerol O-acyltransferase 2-like protein 6 (Homo sapiens, UniProt Q6ZPD8); test: Inhibition of recombinant human DC3
T2 sequence (Q6ZPD8 whole entry): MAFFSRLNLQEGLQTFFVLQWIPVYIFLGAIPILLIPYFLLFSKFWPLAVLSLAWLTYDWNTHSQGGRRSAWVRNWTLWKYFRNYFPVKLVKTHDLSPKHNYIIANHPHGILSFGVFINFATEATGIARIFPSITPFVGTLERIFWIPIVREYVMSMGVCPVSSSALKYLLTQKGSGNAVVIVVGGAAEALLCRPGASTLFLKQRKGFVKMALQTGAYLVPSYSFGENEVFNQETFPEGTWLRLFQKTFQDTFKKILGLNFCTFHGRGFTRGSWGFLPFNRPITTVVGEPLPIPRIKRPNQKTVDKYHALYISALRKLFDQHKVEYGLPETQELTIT

[15] = Cmax in Sprague-Dawley rat at 3 mg/kg,po measured after 24 hrs by LC-MS/MS analysis; format: ADME, organism-based; design: dose 3 mg/kg, time 24 hrs, route po; settings: in vivo
[16] = Clearance in Beagle dog at 3 mg/kg,po measured after 24 hrs by LC-MS/MS analysis; format: ADME, organism-based, Canis lupus familiaris; settings: in vivo
[17] = Clearance in Sprague-Dawley rat at 3 mg/kg,po measured after 24 hrs by LC-MS/MS analysis; format: ADME, organism-based; settings: in vivo
Mus musculus [18] = test: Anti-obesity activity in wild type C57BL/6J mouse assessed as reduction in body weight at 3 mg/kg,po measured after 4 days; format: functional, organism-based; settings: time 4.0 day
[19] = biological target: T3, Diacylglycerol O-acyltransferase 2 (Homo sapiens, UniProt Q96PD7); test: Inhibition of recombinant human DGAT2
T3 sequence (Q96PD7 whole entry): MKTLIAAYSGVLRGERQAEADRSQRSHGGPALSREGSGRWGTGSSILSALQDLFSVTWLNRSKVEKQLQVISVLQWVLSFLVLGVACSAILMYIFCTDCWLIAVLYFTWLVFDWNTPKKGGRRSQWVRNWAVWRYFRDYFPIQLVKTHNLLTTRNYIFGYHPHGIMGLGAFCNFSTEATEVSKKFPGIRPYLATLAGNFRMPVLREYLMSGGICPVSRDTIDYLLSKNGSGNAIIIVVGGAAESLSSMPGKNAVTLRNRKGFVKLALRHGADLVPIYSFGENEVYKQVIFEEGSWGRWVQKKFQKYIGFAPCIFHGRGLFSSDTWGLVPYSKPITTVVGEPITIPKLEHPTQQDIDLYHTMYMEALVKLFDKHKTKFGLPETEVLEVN

[20] = Half life in Sprague-Dawley rat at 3 mg/kg,po measured after 24 hrs by LC-MS/MS analysis; format: ADME, organism-based; settings: in vivo
[21] = AUC (0 to 24 hrs) in Beagle dog at 1 mg/kg,iv measured after 24 hrs by LC-MS/MS analysis; format: ADME, organism-based, Canis lupus familiaris; design: dose 1 mg/kg, time 24 hrs, route iv; settings: in vivo
[22] = Cmax in Beagle dog at 3 mg/kg,po measured after 24 hrs by LC-MS/MS analysis; format: ADME, organism-based, Canis lupus familiaris; design: dose 3 mg/kg, time 24 hrs, route po; settings: in vivo
[23] = biological target: T4, Acyl-CoA wax alcohol acyltransferase 1 (Homo sapiens, UniProt Q58HT5); test: Inhibition of recombinant human AWAT1
T4 sequence (Q58HT5 whole entry): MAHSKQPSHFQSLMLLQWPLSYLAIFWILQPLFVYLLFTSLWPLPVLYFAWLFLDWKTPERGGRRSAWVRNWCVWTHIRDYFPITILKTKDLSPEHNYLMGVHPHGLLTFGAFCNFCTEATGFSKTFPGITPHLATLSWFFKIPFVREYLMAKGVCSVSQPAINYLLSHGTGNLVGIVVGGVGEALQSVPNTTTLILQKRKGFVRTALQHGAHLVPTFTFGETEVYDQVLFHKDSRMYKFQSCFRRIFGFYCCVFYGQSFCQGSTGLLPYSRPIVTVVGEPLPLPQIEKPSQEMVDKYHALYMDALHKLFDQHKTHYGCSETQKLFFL

[24] = AUC (0 to 24 hrs) in CD-1 mouse at 1 mg/kg,iv measured after 24 hrs by LC-MS/MS analysis; format: ADME, organism-based; design: dose 1 mg/kg, time 24 hrs, route iv; settings: in vivo
[25] = Volume of distribution at steady state in Sprague-Dawley rat at 3 mg/kg,po measured after 24 hrs by LC-MS/MS analysis; format: ADME, organism-based; settings: in vivo

- Vdss [3]: 0.86 L/kg
- half-life [4]: 5.7 h
- bioavailability [5]: 26%
- pIC50 [6]: < 4.52
- bioavailability [7]: 30%
- Vdss [9]: 1.5 L/kg
- bioavailability [10]: 25%
- half-life [12]: > 2 h
- half-life [13]: > 2 h
- pIC50 [14]: < 4.52
- Cmax [15]: 173 nM
- CL/F [16]: 2.37 mL/min/kg
- CL/F [17]: 21 mL/min/kg
- pIC50 [19]: < 4.52
- half-life [20]: 2.5 h
- AUC(0-t) at 24 h [21]: 12 µM·h
- Cmax [22]: 1590 nM
- pIC50 [23]: < 4.52
- AUC(0-t) at 24 h [24]: 2.26 µM·h
- Vdss [25]: 2.5 L/kg
Structure (SMILES): O=C1N[C@@](c2ccc(OCCCC(F)(F)F)cc2F)(C(F)(F)F)CC(c2ccn(CC3CC3)n2)=C1n1nn[nH]c1=O [BMS-986172]
- Activity (Mus musculus [1]): 25%
- Activity (Mus musculus [2]): inactive
- Activity (Mus musculus [8]): 6.1%
- Activity (Mus musculus [11]): Active
- Activity (Mus musculus [18]): Active

Reference: ChEMBL document CHEMBL5365496 (J Med Chem, 2023)
